The text below walks through data of ChEMBL document CHEMBL3822372, “The development of peptide ligands that target helix 69 rRNA of bacterial ribosomes” (Bioorg Med Chem, 2016).

Experiment [1] can be described thus: Binding affinity to MS2-tagged 50s rRNA A-site in Escherichia coli BL21(DE3) by single molecule FRET assay.
Experiment [2] is described as follows: Binding affinity to uridylated H69 50s rRNA (unknown origin) by ESI-MS analysis. The settings on record: for Kd: read-out: Kd(app).
Experiment [3] is described as follows: Binding affinity to pseudouridylated H69 50s rRNA (unknown origin) by ESI-MS analysis. The settings on record: for Kd: read-out: Kd(app).
The nature of experiment [4]: Binding affinity to pseudouridylated H69 50s rRNA (unknown origin) at 2:1 peptide:RNA ratio by ESI-MS analysis.
A short description of experiment [5]: Selectivity ratio for uridylated H69 50s rRNA (unknown origin) to pseudouridylated H69 50s rRNA (unknown origin).
Experiment [6] in a line: Binding affinity to uridylated H69 50s rRNA (unknown origin) at 2:1 peptide:RNA ratio by ESI-MS analysis. Conditions: read-out: Kd(app).
Experiment [7] can be described thus: Binding affinity to pseudouridylated H69 50s rRNA (unknown origin) at 1:1 peptide:RNA ratio by ESI-MS analysis.
Experiment [8] is described as follows: Binding affinity to 5'-biotin labeled pseudouridylated H69 50s rRNA (unknown origin) at 2:1 peptide:RNA ratio by ESI-MS analysis. The settings on record: read-out: Kd(app).
Experiment [9] can be described thus: Binding affinity to 5'-biotin labeled uridylated H69 50s rRNA (unknown origin) by ESI-MS analysis.
Experiment [10] can be described thus: Binding affinity to pseudouridylated H69 50s rRNA (unknown origin) at 20 uM by ESI-MS analysis.
A short description of experiment [11]: Binding affinity to 5'-biotin labeled pseudouridylated H69 50s rRNA (unknown origin) by ESI-MS analysis. The settings on record: read-out: Kd(app).

The source made the active and inactive calls. The rule behind the calls is not given here. Some results are limits rather than exact numbers.

As to `COc1ccc(C[C@H](N)C(=O)N[C@H]2[C@@H](O)[C@H](n3cnc4c(N(C)C)ncnc43)O[C@@H]2CO)cc1` [PUROMYCIN], the Kd in [1] was 480 µM.
With H-AQVANHQ-NH2, the Kd in [2] stood at 9.9 µM. Further, the “Kd(app)” value in experiment [3] is “inactive”.
For the compound H-NAVANHQ-NH2, the results for the Kd in [2] and in experiment [3] were 52.8 µM and 4.6 µM, respectively.
Consider H-NQAANHQ-NH2, for which the figures for the Kd in [4] (read-out: Kd(app)) and in experiment [6] were 5 µM and 1 µM, respectively. Besides, the Selectivity ratio in experiment [5] came to 23. Besides, the outcome in experiment [7] was Active.
For H-NQRANHQ-NH2, in experiment [8], the Kd was found to be 6 µM. For the same compound, the outcome in [4] and in [7] was Active. In addition, the “Kd(app)” value in experiment [9] is “inactive”.
H-NQVAAHQ-NH2: the Kd in [2] is 14.3 µM. Also, the “Kd(app)” value in experiment [3] is “inactive”.
Turning to H-NQVAHAQ-NH2, in experiment [10], the result was inactive.
In the case of H-NQVAHHQ-NH2, the Kd in experiment [3] was 16 µM.
In the case of H-NQVANAH-NH2, the Kd in experiment [3] is above 20 µM.
On to H-NQVANAQ-NH2, for which the “Kd(app)” value in experiment [2] and in experiment [3] was “inactive” each time.
For the compound H-NQVANHA-NH2, the Kd in experiment [2] amounted to 47.5 µM; in [3], 13.4 µM.
As to H-NQVANHH-NH2, in experiment [3], the Kd is above 20 µM.
In the case of H-NQVANHQ-NH2, the values for the Kd in experiment [11], in experiment [2] and in experiment [3] were 3.1 µM, 22.9 µM and 4.6 µM, respectively.
Consider H-NQVANHR-NH2, for which the Kd in experiment [11] came out at 31.8 µM; in experiment [2], 20.5 µM.
As to H-NQVANRQ-NH2, the figures for the Kd in experiment [2] and in experiment [3] were 14.4 µM and 4.5 µM, respectively.
For H-NQVARHQ-NH2, the Kd in experiment [2] was found to be 16.5 µM. Further, the “Kd(app)” value in experiment [3] was “inactive”.
Take H-NQVRNHQ-NH2: the Kd was 21.7 µM in experiment [2] and above 20 µM in experiment [3].
Regarding H-NRVANHQ-NH2, the Kd in experiment [2] was 35.5 µM; in experiment [3], above 40 µM.
The matching figures for H-RQVANHQ-NH2: 10 µM and 2.1 µM.
